Laboratory results taken from the supplement of paper PMC11208160.

Test: recombinant barcode read abundance after kanamycin selection (control-corrected) (log10(CPM+1)); higher = more efficient recombination; sequences stand for … in AGTGCAGAGAAAATCGGCCAGTTTTCTCTGCCTGCAGTCCGCATGCCGT…AGATTTATGCAGCGGACTGCCTTTCTCCCAAAGTGATAAACCGGACAGTATCATGGACCGGTTTTCCCGGTAATCCGTATTTGCAAGGTTGGTTTCACT; site = the 11-nt target
Method in brief: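 Recombination efficiency in this pooled E. coli screen uses counts per million of barcodes at recombinant junctions, averaged and corrected against the control. The reported form is log10(CPM+1). Two replicates were plated on chloramphenicol/ampicillin LB agar as control and two on chloramphenicol/ampicillin/kanamycin with 0.1 mM IPTG.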
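Note: IS621 recombinase and bridge RNA in Escherichia coli cells.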

Sequence	recombinant barcode read abundance (log10)
GACTAAGCTTGGGTTCTAACCTGTTGCGG (site CTGGGGTCTAA)	0.0398
GACTAAGCTTGGGTTCTAACCTGTTGCGG (site GACTAAGCTCC)	2.39
GACTCTCCTTGGGTTCTAACCTGTTGCAG (site GACTCTCCTCA)	0.147
GACTCTCCTTGGGTTCTAACCTGTTGCAG (site GACTCTCCTCT)	0.0267
GACTGAGCTTGGGTTCTAACCTGTTGCGG (site AGACAGTCTTG)	0.046
GACTGAGCTTGGGTTCTAACCTGTTGCGG (site GACTGAGCTCC)	2.26
GACTGGGCTTGGGTTCTAACCTGTTGCTG (site GACTGGCCTAA)	0.239
GACTGGGCTTGGGTTCTAACCTGTTGCTG (site GACTGGGCTCA)	1.58
GACTGTCCTTGGGTTCTAACCTGTTGCGA (site GACCGTCCTTG)	0.372
GACTGTCCTTGGGTTCTAACCTGTTGCGA (site GACTGTCCTTC)	1.8
GACTGTTCTTGGGTTCTAACCTGTTGCCT (site GACTGTTCTAG)	0.13
GACTGTTCTTGGGTTCTAACCTGTTGCCT (site GCCTGTTCTAG)	0.0949
GACTGTTCTTGGGTTCTAACCTGTTGCCT (site GGCTGTTCTAG)	0.202
GACTGTTCTTGGGTTCTAACCTGTTGCCT (site GTCTGTTCTAG)	0.0588
GACTTGGCTTGGGTTCTAACCTGTTGCCT (site GACTTGACTAG)	0.0256
GACTTGGCTTGGGTTCTAACCTGTTGCCT (site GACTTGCCTAG)	0.146
GACTTGGCTTGGGTTCTAACCTGTTGCCT (site GACTTGGCTAG)	0.146
GACTTGGCTTGGGTTCTAACCTGTTGCCT (site GACTTGTCTAG)	0.124
GAGAAATCTTGGGTTCTAACCTGTTGCCT (site GAGAAATCTAG)	0.59
GAGAAATCTTGGGTTCTAACCTGTTGCCT (site GAGACATCTAG)	0.249
GAGAAATCTTGGGTTCTAACCTGTTGCCT (site GAGAGATCTAG)	0.0526
GAGAAATCTTGGGTTCTAACCTGTTGCCT (site GAGATATCTAG)	0.0612
GAGAAGTCTTGGGTTCTAACCTGTTGCCT (site GAGAAGTCTAG)	1.93
GAGAAGTCTTGGGTTCTAACCTGTTGCCT (site GAGCAGTCTAG)	0.133
GAGAAGTCTTGGGTTCTAACCTGTTGCCT (site GAGGAGTCTAG)	0.115
GAGAAGTCTTGGGTTCTAACCTGTTGCCT (site GAGTAGTCTAG)	0.404

Sequence	recombinant barcode read abundance (log10)
GAGACAGCTTGGGTTCTAACCTGTTGCCT (site GAAACAGCTAG)	0.367
GAGACAGCTTGGGTTCTAACCTGTTGCCT (site GACACAGCTAG)	0.0512
GAGACAGCTTGGGTTCTAACCTGTTGCCT (site GAGACAGCTAG)	1.54
GAGACAGCTTGGGTTCTAACCTGTTGCCT (site GATACAGCTAG)	0.504
GAGACGGCTTGGGTTCTAACCTGTTGCTT (site GAGACGGCTAA)	1.22
GAGACGGCTTGGGTTCTAACCTGTTGCTT (site GAGCCGGCTAA)	0.193
GAGACGGCTTGGGTTCTAACCTGTTGCTT (site GAGGCGGCTAA)	0.424
GAGACGGCTTGGGTTCTAACCTGTTGCTT (site GAGTCGGCTAA)	0.206
GAGACTCCTTGGGTTCTAACCTGTTGCAC (site GAGACTCCTCT)	0.437
GAGACTCCTTGGGTTCTAACCTGTTGCAC (site GAGACTCCTGT)	1.17
GAGACTCCTTGGGTTCTAACCTGTTGCAG (site GAGACTCCTCT)	0.956
GAGACTCCTTGGGTTCTAACCTGTTGCAG (site GAGACTCCTGT)	0.509
GAGACTCCTTGGGTTCTAACCTGTTGCTA (site GAGACTCCTTA)	0.392
GAGACTCCTTGGGTTCTAACCTGTTGCTA (site GCGACTCCTTA)	0.0503
GAGACTGCTTGGGTTCTAACCTGTTGCCT (site GAAACTGCTAG)	0.291
GAGACTGCTTGGGTTCTAACCTGTTGCCT (site GACACTGCTAG)	0.068
GAGACTGCTTGGGTTCTAACCTGTTGCCT (site GAGACTGCTAG)	0.865
GAGACTGCTTGGGTTCTAACCTGTTGCCT (site GATACTGCTAG)	0.0802
GAGAGCACTTGGGTTCTAACCTGTTGCCA (site GAGAGCACTTG)	1.23
GAGAGCACTTGGGTTCTAACCTGTTGCCA (site GAGGGCACTTG)	0.329
GAGAGGACTTGGGTTCTAACCTGTTGCTT (site GAGAGGACTAA)	1.86
GAGAGGACTTGGGTTCTAACCTGTTGCTT (site GATAGAACTAA)	0.0753
GAGATATCTTGGGTTCTAACCTGTTGCCT (site GAGAAATCTAG)	0.223
GAGATATCTTGGGTTCTAACCTGTTGCCT (site GAGACATCTAG)	0.339
GAGATATCTTGGGTTCTAACCTGTTGCCT (site GAGAGATCTAG)	0.217
GAGATATCTTGGGTTCTAACCTGTTGCCT (site GAGATATCTAG)	2.07

Sequence	recombinant barcode read abundance (log10)
GAGATCCCTTGGGTTCTAACCTGTTGCCA (site GAGATCCCTTG)	1.22
GAGATCCCTTGGGTTCTAACCTGTTGCCA (site GGGGTCCCTTG)	0.235
GAGATCCCTTGGGTTCTAACCTGTTGCTA (site GAGATCCCTCA)	0.427
GAGATCCCTTGGGTTCTAACCTGTTGCTA (site GAGATCCCTTA)	1.93
GAGATCCCTTGGGTTCTAACCTGTTGCTG (site GAGATCCCTCA)	2.37
GAGATCCCTTGGGTTCTAACCTGTTGCTG (site GAGATCCCTTA)	0.188
GAGATGACTTGGGTTCTAACCTGTTGCGG (site GAGACGACTCG)	0.0565
GAGATGACTTGGGTTCTAACCTGTTGCGG (site GAGATGACTCC)	2.29
GAGCAACCTTGGGTTCTAACCTGTTGCCG (site GAGCAACCTCG)	1.07
GAGCAACCTTGGGTTCTAACCTGTTGCCG (site GAGCCACCTTG)	0.017
GAGCAGACTTGGGTTCTAACCTGTTGCCT (site GAGCAGACTAG)	0.931
GAGCAGACTTGGGTTCTAACCTGTTGCCT (site GAGCCGACTAG)	0.146
GAGCAGACTTGGGTTCTAACCTGTTGCCT (site GAGCGGACTAG)	0.235
GAGCAGACTTGGGTTCTAACCTGTTGCCT (site GAGCTGACTAG)	0.631
GAGCCACCTTGGGTTCTAACCTGTTGCCA (site GAGCAACCTCG)	0.0457
GAGCCACCTTGGGTTCTAACCTGTTGCCA (site GAGCCACCTTG)	1.02
GAGCGAGCTTGGGTTCTAACCTGTTGCCG (site GAGCGAGCTCA)	0.199
GAGCGAGCTTGGGTTCTAACCTGTTGCCG (site GAGCGAGCTCC)	0.582
GAGCGAGCTTGGGTTCTAACCTGTTGCCG (site GAGCGAGCTCG)	1.11
GAGCGAGCTTGGGTTCTAACCTGTTGCCG (site GAGCGAGCTCT)	0.308
GAGCGATCTTGGGTTCTAACCTGTTGCGT (site GAGCGATCTAC)	1.85
GAGCGATCTTGGGTTCTAACCTGTTGCGT (site GAGTGAGCTAC)	0.0311
GAGCGCTCTTGGGTTCTAACCTGTTGCCT (site GAGCGCTCTAG)	1.48
GAGCGCTCTTGGGTTCTAACCTGTTGCCT (site GAGTGCTCTAC)	0.0357
GAGCGCTCTTGGGTTCTAACCTGTTGCTG (site GAGCGCTCTAA)	0.0574
